Our source for the IC50 values is patent US20070032468A1, “Novel thioxanthine derivatives for use as inhibitors of mpo” (AstraZeneca AB, priority 2003, published 2007).

In general, IC50 refers to the concentration that inhibits the measured activity by half. A higher IC50 goes with weaker potency.

The target of this experiment is T1, human MPO (Homo sapiens, UniProt P05164).
T1 sequence (P05164 49-745): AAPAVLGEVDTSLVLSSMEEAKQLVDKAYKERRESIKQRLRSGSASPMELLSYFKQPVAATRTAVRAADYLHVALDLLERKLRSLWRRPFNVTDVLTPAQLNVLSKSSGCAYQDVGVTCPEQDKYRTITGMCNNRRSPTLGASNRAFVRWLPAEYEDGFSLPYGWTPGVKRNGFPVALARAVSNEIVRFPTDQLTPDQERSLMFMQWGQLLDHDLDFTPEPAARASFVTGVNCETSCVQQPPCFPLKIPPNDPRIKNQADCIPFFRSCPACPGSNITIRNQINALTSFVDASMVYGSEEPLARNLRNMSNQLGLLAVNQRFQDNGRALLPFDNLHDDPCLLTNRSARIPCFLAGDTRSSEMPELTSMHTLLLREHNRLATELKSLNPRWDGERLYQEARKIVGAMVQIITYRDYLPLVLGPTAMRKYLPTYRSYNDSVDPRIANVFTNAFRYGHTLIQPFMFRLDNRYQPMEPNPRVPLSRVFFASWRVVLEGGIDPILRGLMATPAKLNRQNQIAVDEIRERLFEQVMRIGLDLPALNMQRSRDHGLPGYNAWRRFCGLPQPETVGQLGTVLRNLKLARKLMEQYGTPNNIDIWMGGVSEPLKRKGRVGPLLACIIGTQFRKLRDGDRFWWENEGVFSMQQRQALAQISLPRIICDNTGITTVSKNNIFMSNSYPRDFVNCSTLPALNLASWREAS
Nature of the experiment: MPO inhibitory activity screen (TMB oxidation, absorbance). The format is biochemical. Particulars: human MPO 2.5 nM, H2O2 100 μM, buffer pH 6.5, absorbance at about 650 nM. On the procedure:
Methods for the determination of MPO inhibitory activity are disclosed in co-pending patent application WO 02/090575. The pharmacological activity of compounds according to the invention was tested in the following screen:
Assay buffer: 20 mM sodium/potassium phosphate buffer pH 6.5 containing 10 mM taurine and 100 mM NaCl.
Developing reagent: 2 mM 3,3′,5,5′-tetramethylbenzidine (TMB), 200 μM KI, 200 mM acetate buffer pH 5.4 with 20% DMF.
To 10 μl of diluted compounds in assay buffer, 40 μl of human MPO (final concentration 2.5 nM) was added for 10 minutes at room temperature. Then 50 μl of H2O2 (final concentration 100 μM), or assay buffer alone as a control, were added for 10 minutes at room temperature. The reaction was stopped by adding 10 μl 0.2 mg/ml of catalase (final concentration 18 μg/ml) for 5 minutes before 100 μl of TMB developing reagent was added (2 mM TMB in 200 mM acetate buffer pH 5.4 containing 20% dimethylformamide (DMF) and 200 μM KI). Plates were mixed and the amount of oxidised 3,3′,5,5′-tetramethylbenzidine formed was then measured after about 5 minutes using absorbance spectroscopy at about […]. IC50 values were then determined using standard procedures.

In the case of `CC(C)Cn1c(=S)[nH]c(=O)c2[nH]c(C(F)(F)F)nc21` [Example 1, 3-Isobutyl-2-thioxo-8-trifluoromethyl-1,2,3,7-tetrahydro-purin-6-one], the IC50 was under 60 µM.
